The text below walks through data of patent US3940413A, “1-Ethyl-imidazoles” (Bayer Aktiengesellschaft, priority 1972, dated 1976).

Assay in all cases: antimycotic action spectrum in vitro, series dilution test
What all share (assay type): cell-based

One experiment relates to Aspergillus niger. To be noted: in nutrient medium, 28°C, 24 to 96 hours; for MIC: Aspergillus niger, read-out: Minimum inhibitory concentration, Aspergillus niger. As for the experimental part: (§1) Determination of the anti-mycotic action spectrum in vitro by the series dilution test.
(§2) The nutrient substrates used were, for dermatophytes and moulds, Sabourauds' test medium, and, for blastomyces and biphase fungi, meat broth-glucose bouillon.
(§3) The incubation temperature was 28°C and the incubation time was 24 to 96 hours.

The subject of another experiment is Penicillium commune. To be noted: in nutrient medium, 28°C, 24 to 96 hours; for MIC: Penicillium commune, read-out: Minimum inhibitory concentration, Penicillium commune. On the procedure:
as §1, §2, §3

The test system of the next experiment is Candida albicans. To be noted: in nutrient medium, 28°C, 24 to 96 hours; for MIC: Candida albicans, read-out: Minimum inhibitory concentration, Candida albicans. As for the experimental part: as §1, §2, §3
Experiment [1] relates to Trichophyton mentagrophytes. To be noted: in nutrient medium, Sabourauds' test medium, 28°C, 24 to 96 hours; for MIC: Trichophyton mentagrophytes, read-out: Minimum inhibitory concentration, Trichophyton mentagrophytes. On the procedure:
as §1, §2, §3

Values after ≈ are worked out from the molar mass of the structure shown.

Turning to `CC(C)(C)C(=O)C(Cn1ccnc1)Oc1ccc(Cl)cc1` (centres unmarked) [Example 1, 2-(4-chlorophenoxy)-1-imidazolyl-(1)-4,4-dimethyl-pentan-3-one], the MIC in the experiment with Aspergillus niger amounted to 8 µg/mL (≈ 26.1 µM); in the experiment with Penicillium commune, 32 µg/mL (≈ 104 µM); in the experiment on Candida albicans, 4 µg/mL (≈ 13 µM); in experiment [1] it was 4 µg/mL (≈ 13 µM).
As for `CC(C)(C)C(=O)C(Cn1ccnc1)Oc1ccc(Cl)cc1` (centres unmarked) [Example 4, 2-(4-chlorophenoxy)-1-imidazolyl-(1)-4,4-dimethyl-pentan-3-one], the “Minimum inhibitory concentration, Aspergillus niger” value in the experiment with Aspergillus niger was determined as 4 µg/mL (≈ 13 µM). Further, the “Minimum inhibitory concentration, Penicillium commune” value in the experiment with Penicillium commune was determined as 32 µg/mL (≈ 104 µM). Moreover, the “Minimum inhibitory concentration, Candida albicans” value with Candida albicans was determined as 4 µg/mL (≈ 13 µM). Moreover, in experiment [1], the “Minimum inhibitory concentration, Trichophyton mentagrophytes” value amounted to 4 µg/mL (≈ 13 µM).
As to `CC(C)(C)C(=O)C(Cn1ccnc1)Oc1ccc(Cl)cc1Cl` (centres unmarked) [Example 5, 2-(2,4-dichlorophenoxy)-1-imidazolyl-(1)-4,4-dimethyl-pentan-3-one], the MIC was 4 µg/mL (≈ 11.7 µM) with Aspergillus niger, 16 µg/mL (≈ 46.9 µM) with Penicillium commune, 4 µg/mL (≈ 11.7 µM) with Candida albicans and less than 1 µg/mL in experiment [1].
Turning to `CC(C)(C)C(=O)C(Cn1ccnc1)Oc1ccc(Br)cc1` (centres unmarked) [Example 6, 2-(4-bromophenoxy)-1-imidazolyl-(1)-4,4-dimethyl-pentan-3-one], the MIC in the experiment with Aspergillus niger came out at 4 µg/mL (≈ 11.4 µM); in the experiment with Penicillium commune it was 16 µg/mL (≈ 45.6 µM); in the experiment with Candida albicans it was 4 µg/mL (≈ 11.4 µM); in experiment [1] it was 8 µg/mL (≈ 22.8 µM).
Take `CC(C)(C)C(=O)C(Cn1ccnc1)Oc1ccc(F)cc1` (centres unmarked) [Example 7, 2-(4-fluorophenoxy)-1-imidazolyl-(1)-4,4-dimethyl-pentan-3-one]: the MIC in the experiment on Aspergillus niger was determined as 4 µg/mL (≈ 13.8 µM); in the experiment on Penicillium commune, 32 µg/mL (≈ 110 µM); in the experiment with Candida albicans, 4 µg/mL (≈ 13.8 µM); in experiment [1], 8 µg/mL (≈ 27.6 µM).
For `CC(C)(C)C(=O)C(Cn1ccnc1)Oc1ccccc1Cl` (centres unmarked) [Example 8, 2-(2-chlorophenoxy)-1-imidazolyl-(1)-4,4-dimethyl-pentan-3-one], the MIC in the experiment on Aspergillus niger came out at 4 µg/mL (≈ 13 µM); in the experiment on Penicillium commune, 16 µg/mL (≈ 52.2 µM); with Candida albicans it was 4 µg/mL (≈ 13 µM); in experiment [1], 8 µg/mL (≈ 26.1 µM).
In the case of `CC(C)(C)C(=O)C(Cn1ccnc1)Oc1cccc(Cl)c1` (centres unmarked) [Example 9, 2-(3-chlorophenoxy)-1-imidazolyl-(1)-4,4-dimethyl-pentan-3-one], the MIC in the experiment on Aspergillus niger came out at 4 µg/mL (≈ 13 µM); in the experiment on Penicillium commune, 16 µg/mL (≈ 52.2 µM); in the experiment with Candida albicans it was 4 µg/mL (≈ 13 µM); in experiment [1], 4 µg/mL (≈ 13 µM).
Turning to `CC(C)(C)C(=O)C(Cn1ccnc1)Oc1cc(Cl)c(Cl)cc1Cl` (centres unmarked) [Example 10, 2-(2,4,5-trichlorophenoxy)-1-imidazolyl-(1)-4,4-dimethyl-pentan-3-one], the MIC was 4 µg/mL (≈ 10.6 µM) in the experiment with Aspergillus niger, 16 µg/mL (≈ 42.6 µM) in the experiment on Penicillium commune, 4 µg/mL (≈ 10.6 µM) in the experiment with Candida albicans and 4 µg/mL (≈ 10.6 µM) in experiment [1].
As for `Cc1cc(Cl)ccc1OC(Cn1ccnc1)C(=O)C(C)(C)C` (centres unmarked) [Example 12], the MIC was 8 µg/mL (≈ 24.9 µM) in the experiment with Aspergillus niger, 8 µg/mL (≈ 24.9 µM) in the experiment on Penicillium commune, 4 µg/mL (≈ 12.5 µM) in the experiment on Candida albicans and less than 1 µg/mL in experiment [1].
As to `CC(C)(C)C(=O)C(Cn1ccnc1)Oc1ccccc1-c1ccccc1` (centres unmarked) [Example 13, 2-(2-phenylphenoxy)-1-imidazolyl-(1)-4,4-dimethyl-pentan-3-one], the MIC in the experiment with Aspergillus niger is 8 µg/mL (≈ 23 µM); in the experiment on Penicillium commune it was 16 µg/mL (≈ 45.9 µM); in the experiment on Candida albicans, 4 µg/mL (≈ 11.5 µM); in experiment [1], 8 µg/mL (≈ 23 µM).
For the compound `CC(C)(C)C(=O)C(Cn1ccnc1)Oc1ccc(-c2ccccc2)cc1` (centres unmarked) [Example 14, 2-(4-phenylphenoxy)-1-imidazolyl-(1)-4,4-dimethyl-pentan-3-one], the MIC in the experiment on Aspergillus niger is 8 µg/mL (≈ 23 µM); in the experiment with Penicillium commune it was 8 µg/mL (≈ 23 µM); in the experiment with Candida albicans, 4 µg/mL (≈ 11.5 µM); in experiment [1] it was less than 1 µg/mL.
